Data reported in US10675266B2, “Compounds and methods for treating autism spectrum disorders” (BIOCODEX, priority 2008, dated 2020).

Key:
patients = test: Observation of autism symptoms in patients after initiation of treatment; type: in vivo, human
Text: This observation can be confirmed by studies in animal models that mimic characteristic features of autism such as the models described by Moy S S et al, Behav. Brain Res. 176:4, 2007 and McFarlane H G et al, Genes, Brain and Behavior, 1601:1, 2007.

SMEI patients = settings: cited from earlier work
BALB/c mice = test: Social investigatory behaviour of BALB/c test mice towards a juvenile DBA/2J stimulus mouse; type: in vivo; settings: for duration of social contacts: 100, 200 and 300 mg/kg i.p. once daily for 5 days
Protocol: (§1) The purpose of this study was to examine the effects of stiripentol on the social behavioural in BALB/c mice compared to C57BL/6J (C57) inbred mice. The social investigatory behaviour of mice was measured by the amount of time that the “test” mouse (BALB/c and C57 mice) engaged in social contact with the “stimulus” mouse (juvenile DBA/2J mice strain).
(§2) All male mice (BALB/c, C57 and DBA/2J) were purchased from the Charles River breeding (Les Oncins-France). BALB/c and C57 mice were 8 weeks of age upon arrival at the laboratory. They were housed in temperature-controlled rooms (22±2° C.), separately by strain, with 5 mice per polycarbonate cage (type “S” cage: 265 mm L×160 mm W×140 mm H) and provided with food (A04-SAFE, France) and tap water ad libitum. Behavioral testing was conducted during the light period of a 12-h light:12-h dark cycle (lights on at 7 a.m.). The mice were used for behavioural testing starting 5-7 days after arrival at the laboratory whereas juvenile DBA/2J mice were used at 3-weeks of age and arrived at the laboratory 5 days prior testing. The experiments were conducted in accordance with the European Recommendations (directive 86/609/ECC) for the care and use of laboratory animals.
(§3) The general procedure was conducted according to the protocol described by Fishkin and Winslow (1997) Psychopharmacology (Berl) 132:335-341 with slight modifications.
Twenty-four hours prior to testing, BALB/c and C57 mice were individually housed in clear cage (type “S” cage). Food and water remained freely available. Individual housing was provided firstly to permit resident male mice an opportunity to scent mark and habituate to their home cage and, secondly to heighten the motivation of “test” mice for social interaction. All the animals were allowed to acclimate to the test room (natural lighting) for at least 1 h prior to testing which was conducted between 9 a.m. and 3 p.m.
The juvenile DBA/2J mouse was placed into BALB/c or C57 mouse cage for a 10-min observation period. The DBA/2J mouse served as “stimulus” mouse for one BALB/c mouse and one C57BL mouse. For each contact, an observer, sitting about 1 m from the cage; recorded the latency to the first contact (or approach) (in sec) towards the “stimulus” mouse and the time (in sec) that the “test” mouse spent in social investigatory behaviour. Nosing, sniffing, pawing, grooming and close following of the “stimulus” mouse by the young adult mouse were considered to be signs of social investigation. […]
(§4) All data represent the mean±standard error of mean (S.E.M.). Treatment effects on mean latency to the first contact and on mean duration of social investigation were analyzed with two-way analysis of variance (ANOVA) with the strain and the treatment as factors. […]

[1] = system: recombinant GABA-A receptors; settings: cited from earlier work
[2] = doses 100, 200 and 300 mg/kg i.p.; from literature (Gasior 1999; Vincent 1991); cited from earlier work
animal models = settings: several animal models; cited from earlier work
C57 mice = test: Social investigatory behaviour of C57 test mice towards a juvenile DBA/2J stimulus mouse; type: in vivo
Protocol: as §1, §2, §3
Twenty-four hours prior to testing, BALB/c and C57 mice were individually housed in clear cage (type “S” cage). […]
The juvenile DBA/2J mouse was placed into BALB/c or C57 mouse cage for a 10-min observation period. […] For each contact, an observer, sitting about 1 m from the cage; recorded the latency to the first contact (or approach) (in sec) towards the “stimulus” mouse and the time (in sec) that the “test” mouse spent in social investigatory behaviour. […]
as §4

CC(C)(C)C(O)/C=C/c1ccc2c(c1)OCO2 (racemic) [Stiripentol, 1-penten-3-ol, 1-(1,3-benzodioxol)-4,4-dimethyl]
autism symptoms (patients): resolution of autism symptoms
response rate (SMEI patients; SMEI patients, 50 mg/kg/day): high response rate
efficacy in double blind controlled clinical trials (SMEI patients; two double blind controlled clinical trials (Chiron, Lancet 2000)): high efficacy
latency to the first contact (BALB/c mice; 100, 200, 300 mg/kg i.p. once daily for 5 days, last dose 60 min before testing, FIG. 1): trend for decrease
duration of social contacts (BALB/c mice; FIG. 2): increased duration of social contacts
duration of social contacts (BALB/c mice; FIG. 2, listed as stiripentol): significantly increased
sociability (BALB/c mice; sub-chronic treatment 100, 200 or 300 mg/kg i.p. x 5 days): enhanced the sociability
modulation of the GABA receptor ([1]; Fisher, Neuropharmacology 2009): positive allosteric modulator
potentiation by subunit subtype ([1]; alpha subunit subtypes compared): alpha 3 subtype showed the greatest potentiation
adverse motor effects [2]: devoid of any adverse motor effects
anticonvulsant activity (animal models): has shown anticonvulsant activity
sedative effects (C57 mice; 300 mg/kg i.p. once daily for 5 days): sedative effects in C57 mice began to appear
duration of social contacts (C57 mice; 300 mg/kg i.p. once daily for 5 days, FIG. 2): significantly lowered
latency to the first contact (C57 mice; up to 300 mg/kg i.p. once daily for 5 days, FIG. 1): without effects
